Literature values as cited in US20220400744A1, “POUCHED PRODUCT COMPRISING DISSOLVABLE COMPOSITION” (NICOVENTURES TRADING LIMITED, priority 2021, published 2022).
Like-named read-outs stand apart in the source and are kept apart here.

Columns and labels:
[1] = for solubility in water / aqueous environment: water or aqueous environment (e.g., saliva)
[2] = for logP: Table 1, partition coefficient between octanol and water
[3] = when isolated; isomerizes to trans-bixin

Row | Compound | solubility in water / aqueous environment [1] | logP [2] | other results
1 | CC(/C=C/C=C(C)/C=C/C(=O)O)=C\C=C\C=C(C)\C=C\C=C(C)\C=C\C(=O)O (stereo in doubt) [norbixin, (2E,4E,6E,8E,10E,12E,14E,16E,18E)-4,8,13,17-tetramethylicosa-2,4,6,8,10,12,14,16,18-nonaenedioic acid] | water soluble | – | –
2 | C=C(C)[C@@H]1CCC(C)=C[C@H]1c1c(O)cc(CCCCC)cc1O [CBD, cannabidiol, reference compound] | insoluble | – | logP value ([2]; CBD): about 6.5
3 | COC(=O)/C=C/C(C)=C\C=C\C(C)=C\C=C\C=C(C)\C=C\C=C(C)\C=C\C(=O)O [bixin, (2E,4E,6E,8E,10E,12E,14E,16Z,18E)-20-methoxy-4,8,13,17-tetramethyl-20-oxoicosa-2,4,6,8,10,12,14,16,18-nonaenoic acid] | insoluble | – | solubility in fats and alcohols ([1]; fats and alcohols): soluble; chemical stability [3]: chemically unstable
4 | CC(C)[C@@H]1CC[C@@H](C)C[C@H]1OC(=O)CCC(=O)O [monomenthyl succinate] | – | 3 | –
5 | CN1CCCC1c1cccnc1 (centres unmarked) [nicotine, reference compound] | – | – | partitioning into octanol ([2]; acidic pH, about 6.5 to about 4, protonated form): lower partitioning into octanol; partitioning into octanol ([2]; alkaline pH, about 7.5 to about 9, free base form): high partitioning into octanol
6 | ethyl benzoic acid | – | 2.9 | –
7 | isopropyl benzoic acid | – | 3.5 | –
